Measured values as given in article PMC12655659, “Population Pharmacokinetics of Radotinib in Healthy Volunteers and Patients with Chronic Myeloid Leukemia” (Pharmaceuticals, 2025).
Where two headings read alike, the source gives them in different places.

How the values were obtained:
[1] = system: patients newly diagnosed with Ph+ CML-CP; set-up: method as in PMID 28939746; details: by 12 months, cited from earlier work
[2] = Preliminary pharmacokinetic assessment in patients with CML-CP; assay type: in vivo; details: human, plasma, oral, 300 mg twice daily, obtained by doubling the preliminary value of AUC0–12h, read-out: AUC0–24h, previously estimated
[3] = Population pharmacokinetic model (nonlinear mixed-effects modeling) of radotinib plasma concentrations in healthy volunteers and patients with CML-CP; assay type: in vivo, human; details: for half-life: human, plasma, oral, read-out: terminal half-life (t1/2), population estimate (converted)
Experimental: Two clinical PK studies of radotinib were performed in healthy volunteers and patients with CML-CP. The two studies were approved by the institutional review board (IRB) of Severance Hospital and Peking University People’s Hospital (IRB numbers 4-2024-0489 and 2018PHA053, respectively) and were conducted in accordance with the Declaration of Helsinki and the International Council for Harmonization Good Clinical Practice (ICH-GCP) guidelines. All participants provided written informed consent prior to any study-related procedures. The studies were registered at ClinicalTrials.gov (identifiers: NCT06461078 and NCT03722420). The present population PK study was performed using pooled data from two clinical studies.
The first study (NCT06461078) included healthy male adult volunteers aged 19 to 55 years, weighing 55 kg or heavier, with a body mass index (BMI) between 18.5 kg/m^2 and 27.0 kg/m^2. Individuals with a history of clinically significant psychiatric or comorbid conditions such as severe hepatic impairment, severe renal impartment, long QT syndrome; a history of gastrointestinal disorders or surgeries that may have affected the absorption of radotinib; or suspected symptoms of acute illness at the time of screening were excluded. Also excluded were individuals with concomitant medications or foods that may have interfered with the study outcomes as well as those with excessive consumption of caffeine, alcohol or tobacco. Individuals were also ineligible if they had participated in other clinical trials within 180 days, donated whole blood within 60 days or blood components within 30 days or received a blood transfusion within 30 days prior to the administration of radotinib. Study participants received a single oral dose of 400 mg radotinib under fasting conditions. Serial blood samples were collected from forearm veins of participants pre-dose and at 0.5, 1, 2, 3, 4, 5, 6, 8, 10, 12, 18, 24, 32 and 48 h post-dose.
The second study (NCT03722420) included patients aged 18 years or older with a confirmed diagnosis of Ph+ CML-CP within last 6 months, typical BCR-ABL1 transcript type and normal organ function. Patients with a T315I mutation in the BCR-ABL1 gene; a history of radiotherapy, interferon or other targeted anti-leukemic therapies; or clinically significant comorbidities were excluded. Patients were also ineligible if they had participated in other investigational studies within the past 3 months or were taking therapeutic coumarin derivatives; a moderate or strong CYP3A4 inhibitor or inducer; or medications that may have prolonged the QT interval. Study participants were orally administered 300 mg radotinib twice daily under fasting conditions. Serial blood samples were obtained from forearm veins pre-dose and at 1, 2, 3, 4, 6, 8 and 12 h post-dose on Days 1 and 14.
All samples were centrifuged to separate plasma and stored at −70 °C until the measurement of plasma concentrations (Cp) of radotinib. The Cp of radotinib in HVs was measured using high-performance liquid chromatography coupled with tandem mass spectrometric detection (HPLC-MS/MS; Prominence HPLC/UFLC/UFLCXR, Shimadzu, Kyoto, Japan; QTRAP 6500+, SCIEX, Marlborough, MA, USA). An internal standard was radotinib-d6 dissolved in acetonitrile to produce working solutions. The linearity of the bioanalytical method was assessed using a calibration curve computed by a weighted (1/x^2) linear regression from seven standard concentrations (5, 10, 30, 100, 300, 1000 and 2000 ng/mL). The method was validated using concentrations of 5, 15, 160 and 1600 ng/mL for the lower limit of quantitation (LLOQ) and low- (LQC), medium- (MQC) and high-quality controls (HQC), respectively.
In patients with CML-CP, the Cp of radotinib was quantified using another HPLC–MS/MS system (LC-20ADXR pump, CTO-20AC column oven, CBM-20A Lite controller and DGU-20A5R degasser, Shimadzu, Kyoto, Japan; API 4000, SCIEX, MA, USA). Glipizide in acetonitrile was used as an internal standard. […]

[4] = set-up: method as in ref 24 = [24]; 24. Kim J. Kang M. Lee Y. Yoo S. Han J. Cho D.J. Lee G.Y. Kim N.Y. Jiang Q. Lee J. Pharmacokinetic characteristics of radotinib assessed in Asian patients with chronic myeloid leukemia Proceedings of; details: patients with CML-CP, cited from earlier work
patients with CML-CP = system: patients with CML-CP; set-up: method as in PMID 24705186; details: 400 mg twice daily; 77 patients; at 12 months; cited from earlier work
[5] = set-up: method as in ref 23 = [23]; 23. Lee Y. Kang M. Kim J. Han J. Kim N.Y. Shin J.S. Park M.S. Kim C.O. Jin B.H. Choi M.K. Clinical pharmacokinetic characteristics and the effect of food on radotinib in healthy volunteers Proceedings; details: healthy volunteers; cited from earlier work
[6] = cited from earlier work

**Q.** For Cc1ccc(NC(=O)c2ccc(CN3CCN(C)CC3)cc2)cc1Nc1nccc(-c2cccnc2)n1 [imatinib], which “patients achieving major molecular response (MMR)” value ([1]; once-daily 400 mg, 20 of 66 patients) is on record?
**A.** The value was 30%.

**Q.** Which results are given for Cc1cn(-c2cc(NC(=O)c3ccc(C)c(Nc4nccc(-c5cnccn5)n4)c3)cc(C(F)(F)F)c2)cn1 [radotinib]?
**A.** AUC(0-t) [2]: 24000 ng·h/mL; CL/F, bootstrap estimate median (95% CI) ([3]; bootstrap of 1000 replicates): 23.2 (20.0–26.5) L/h; MTT, bootstrap estimate median (95% CI) ([3]; bootstrap of 1000 replicates): 1.86 (1.43–2.27) h; N, bootstrap estimate median (95% CI) ([3]; bootstrap of 1000 replicates): 6.34 (4.46–10.6); Q/F, bootstrap estimate median (95% CI) ([3]; bootstrap of 1000 replicates): 126 (88.9–185) L/h; Vc/F age effect, bootstrap estimate median (95% CI) ([3]; bootstrap of 1000 replicates): −0.0127 (−0.0258–−0.003); Vc/F, bootstrap estimate median (95% CI) ([3]; bootstrap of 1000 replicates): 395 (281–526) L; Vp/F, bootstrap estimate median (95% CI) ([3]; bootstrap of 1000 replicates): 529 (398–733) L; ka, bootstrap estimate median (95% CI) ([3]; bootstrap of 1000 replicates): 1.56 (1.07–3.14) h^−1; σproportional, bootstrap estimate ([3]; bootstrap of 1000 replicates): 20.0%; ωCL/F, bootstrap estimate median (95% CI) ([3]; bootstrap of 1000 replicates): 0.379 (0.301–0.459); ωIOV, bootstrap estimate median (95% CI) ([3]; bootstrap of 1000 replicates): 0.669 (0.494–0.829); CL/F slower in CML-CP patients compared with HVs ([3]; final population PK model): 39.2%; MTT (mean transit time), population estimate ([3]; final population PK model): 1.88 h; N (number of transit compartments), population estimate ([3]; final population PK model): 6.58; estimated slope of negative linear effect of age on Vc/F ([3]; final population PK model): −0.0129 per year; ka (first-order absorption rate constant), population estimate ([3]; final population PK model): 1.59 h⁻¹; negative linear relationship of age with Vc/F ([3]; final population PK model): −0.0129 L per year; total V/F (summation of Vc/F and Vp/F) ([3]; final population PK model): 902 L; σproportional (proportional residual error), population estimate ([3]; final population PK model): 20.0%; ωCL/F (interindividual variability of apparent clearance), population estimate ([3]; final population PK model): 0.389; CL/F, population estimate in healthy volunteers ([3]; final population PK model, HVs): 37.9 L/h; Vc/F age effect (slope), population estimate ([3]; final population PK model, linear, age − 31): −0.0129; ωIOV (interoccasion variability), population estimate ([3]; final population PK model, on Vc/F and Vp/F): 0.698; CL/F (apparent clearance), population estimate ([3]; final population PK model, typical patient with CML-CP): 23.0 L/h; terminal half-life (t1/2), population estimate ([3]; healthy volunteers): 18.2 h; half-life ([3]; 300 mg, patients with CML-CP): 28.8 h; half-life ([3]; male, 400 mg, healthy volunteers): 17.5 h; Cmax, preliminarily assessed value ([4]; 300 mg twice daily): 1595 (1143–2393) ng/mL; tmax, preliminarily assessed value ([4]; 300 mg twice daily): 2.5 (2.0–3.8) h; t1/2, preliminary value [4]: 25.4 h; patients achieving major cytogenetic response (MCyR) (patients with CML-CP): 65%; patients attaining complete cytogenetic response (CCyR) (patients with CML-CP): 47%; V/F, preliminary value based on NCA [5]: 1315 L; t1/2, preliminary value [5]: 17.5 h; patients achieving major molecular response (MMR) ([1]; 300 mg twice daily, 37 of 69 patients): 54%

**Q.** Which “target Ctrough in terms of favorable molecular responses” value ([6]; 400 mg once daily) does the source give for Cc1cn(-c2cc(NC(=O)c3ccc(C)c(Nc4nccc(-c5cccnc5)n4)c3)cc(C(F)(F)F)c2)cn1 [nilotinib] here?
**A.** Its value is 500 ng/mL.

**Q.** And the t1/2 [6]?
**A.** Its t1/2 is 16 h.
